Reference: paper PMC9352624, “Going deeper into the toxicokinetics of synthetic cannabinoids: in vitro contribution of human carboxylesterases” (Archives of Toxicology, 2022)
Like-named read-outs stand apart in the source and are kept apart here.

Assays:
hCES2 [1] = target: T1, hCES2 (Homo sapiens, UniProt O00748); test: Initial activity screening with recombinant hCES2; details: 100 µM substrate, 30 min, 37 °C, 0.2 µg/µL protein, LC–ITMS, mean n = 2
T1 sequence (O00748 27-559): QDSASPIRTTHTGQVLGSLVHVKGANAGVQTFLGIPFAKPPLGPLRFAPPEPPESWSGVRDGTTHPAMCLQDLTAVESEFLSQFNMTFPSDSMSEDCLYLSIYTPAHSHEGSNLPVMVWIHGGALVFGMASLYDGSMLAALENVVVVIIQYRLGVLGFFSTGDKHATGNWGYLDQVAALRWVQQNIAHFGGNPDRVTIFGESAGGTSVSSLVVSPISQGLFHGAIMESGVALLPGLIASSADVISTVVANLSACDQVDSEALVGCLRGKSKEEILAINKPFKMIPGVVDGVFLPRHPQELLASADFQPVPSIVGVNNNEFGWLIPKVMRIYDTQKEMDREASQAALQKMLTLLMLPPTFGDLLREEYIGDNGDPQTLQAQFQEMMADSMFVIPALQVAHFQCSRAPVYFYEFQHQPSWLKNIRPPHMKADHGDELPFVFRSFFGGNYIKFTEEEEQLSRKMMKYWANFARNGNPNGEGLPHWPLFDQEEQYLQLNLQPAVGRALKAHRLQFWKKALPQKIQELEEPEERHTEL

hCES1b [2] = target: T2, hCES1b (Homo sapiens, UniProt P23141); test: Initial activity screening with recombinant hCES1b; details: 100 µM substrate, 30 min, 37 °C, 0.2 µg/µL protein, LC–ITMS, mean n = 2
T2 sequence (P23141 18-567): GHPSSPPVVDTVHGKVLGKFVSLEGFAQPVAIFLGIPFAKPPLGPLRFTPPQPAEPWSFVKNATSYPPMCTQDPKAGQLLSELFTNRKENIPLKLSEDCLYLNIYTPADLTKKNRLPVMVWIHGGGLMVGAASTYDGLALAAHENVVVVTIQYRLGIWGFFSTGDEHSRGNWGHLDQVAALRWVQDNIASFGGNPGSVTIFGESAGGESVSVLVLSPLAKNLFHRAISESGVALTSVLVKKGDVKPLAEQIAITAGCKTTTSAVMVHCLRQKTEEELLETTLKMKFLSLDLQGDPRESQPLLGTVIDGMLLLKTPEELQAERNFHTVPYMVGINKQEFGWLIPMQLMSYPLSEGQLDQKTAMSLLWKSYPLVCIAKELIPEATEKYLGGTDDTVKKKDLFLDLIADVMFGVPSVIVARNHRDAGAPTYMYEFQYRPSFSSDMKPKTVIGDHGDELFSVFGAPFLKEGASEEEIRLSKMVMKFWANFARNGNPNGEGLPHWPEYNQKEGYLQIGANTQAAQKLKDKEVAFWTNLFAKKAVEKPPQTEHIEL

hCES1c [3] = target: T3, hCES1c (Homo sapiens, UniProt P23141); test: Initial activity screening with recombinant hCES1c; details: 100 µM substrate, 30 min, 37 °C, 0.2 µg/µL protein, LC–ITMS, mean n = 2
T3 sequence (P23141 18-566 isoform P23141-3 limits assumed): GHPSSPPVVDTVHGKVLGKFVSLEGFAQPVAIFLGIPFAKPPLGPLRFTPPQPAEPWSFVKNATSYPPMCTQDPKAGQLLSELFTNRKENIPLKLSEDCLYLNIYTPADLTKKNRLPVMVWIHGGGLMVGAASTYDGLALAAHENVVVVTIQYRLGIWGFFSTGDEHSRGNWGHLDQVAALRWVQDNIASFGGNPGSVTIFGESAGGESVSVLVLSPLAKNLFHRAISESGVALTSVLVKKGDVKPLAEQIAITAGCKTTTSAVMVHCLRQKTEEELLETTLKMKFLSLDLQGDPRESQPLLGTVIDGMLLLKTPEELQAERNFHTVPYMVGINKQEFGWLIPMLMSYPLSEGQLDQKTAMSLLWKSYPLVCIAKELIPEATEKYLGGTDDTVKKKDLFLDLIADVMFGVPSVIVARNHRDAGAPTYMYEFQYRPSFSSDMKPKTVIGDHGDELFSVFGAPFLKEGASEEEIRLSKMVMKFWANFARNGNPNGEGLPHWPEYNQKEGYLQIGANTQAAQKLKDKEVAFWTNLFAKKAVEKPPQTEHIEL

hCES2 [4] = target: T1, hCES2; test: Enzyme kinetic studies of ester hydrolysis with hCES2; details: for Vmax (relative), ester hydrolysis by hCES2: peak area ratio metabolite/internal standard
hCES1b [5] = target: T2, hCES1b; test: Enzyme kinetic studies of ester hydrolysis with hCES1b; details: for Vmax (relative), ester hydrolysis by hCES1b: peak area ratio metabolite/internal standard
hCES1c [6] = target: T3, hCES1c; test: Enzyme kinetic studies of ester hydrolysis with hCES1c; details: for Vmax (relative), ester hydrolysis by hCES1c: peak area ratio metabolite/internal standard
[7] = Initial activity screening with pooled human liver microsomes; details: 100 µM substrate, 30 min, 37 °C, 2 µg/µL protein, LC–ITMS, mean n = 2
[8] = Initial activity screening with pooled human liver S9 fraction; details: 100 µM substrate, 30 min, 37 °C, 2 µg/µL protein, LC–ITMS, mean n = 2
hCES1b [9] = target: T2, hCES1b; set-up: purchased Corning (Amsterdam, The Netherlands); host or cells: baculovirus transfected insect cells; method as in Meyer et al. [2015]; details: identical incubation conditions and analyzing methods; ref Meyer et al. [2015]; read-out: Km, hCES1b, literature value; cited from earlier work
hCES1c [10] = target: T3, hCES1c; set-up: purchased Corning (Amsterdam, The Netherlands); host or cells: baculovirus transfected insect cells; method as in Meyer et al. [2015]; details: identical incubation conditions and analyzing methods; ref Meyer et al. [2015]; read-out: Km, hCES1c, literature value; cited from earlier work
hCES2 [11] = target: T1, hCES2; set-up: purchased Corning (Amsterdam, The Netherlands); host or cells: baculovirus transfected insect cells; method as in Meyer et al. [2015]; details: identical incubation conditions and analyzing methods; ref Meyer et al. [2015]; read-out: Km, hCES2, literature value; cited from earlier work

In the case of `COc1ccc2c3c1O[C@H]1C(OC(C)=O)=CC[C@H]4[C@@H](C2)N(C)CC[C@]314` [Thebacon, reference compound], the “Relative amount of hydrolysis metabolite formed, hCES2” value (hCES2 [1]) is reported as 19%, the “Relative amount of hydrolysis metabolite formed, hCES1b” value (hCES1b [2]) is reported as 47% and the “Relative amount of hydrolysis metabolite formed, hCES1c” value (hCES1c [3]) is reported as 10%. For the same molecule, the “Clint (relative in vitro intrinsic clearance), hCES2” value (hCES2 [4]; Clint = Vmax/Km) was 0.89 AU/min/mg/µM, the Km (hCES2 [4]; read-out: Corrected Km, hCES2, current Km adjusted by 2.2-fold enzyme load activity factor) was 247 µM and the Km (hCES2 [4]; read-out: Km, ester hydrolysis by hCES2, ± S.D., Michaelis–Menten fit, conditions of Table 1) was 543 ± 87 µM. The “Vmax (relative), ester hydrolysis by hCES2” value (hCES2 [4]; ± S.D.) was 482 ± 31 AU/min/mg, the “Vmax (relative), ester hydrolysis by hCES2” value (hCES2 [4]; ± S.D., listed as thebacon) was 482 AU/min/mg and the “Clint (relative in vitro intrinsic clearance), hCES1b” value (hCES1b [5]; Clint = Vmax/Km) was 0.60 AU/min/mg/µM. The Km (hCES1b [5]; read-out: Corrected Km, hCES1b, current Km adjusted by 2.4-fold enzyme load activity factor) was 273 µM, the Km (hCES1b [5]; read-out: Km, ester hydrolysis by hCES1b, ± S.D., Michaelis–Menten fit, conditions of Table 1) was 655 ± 210 µM and the “Vmax (relative), ester hydrolysis by hCES1b” value (hCES1b [5]; ± S.D.) was 394 ± 40 AU/min/mg. For the same molecule, the “Vmax (relative), ester hydrolysis by hCES1b” value (hCES1b [5]; ± S.D., listed as thebacon) was 394 AU/min/mg, the “Clint (relative in vitro intrinsic clearance), hCES1c” value (hCES1c [6]; Clint = Vmax/Km) was 0.54 AU/min/mg/µM and the Km (hCES1c [6]; read-out: Corrected Km, hCES1c, current Km adjusted by 5.3-fold enzyme load activity factor) was 289 µM. The Km (hCES1c [6]; read-out: Km, ester hydrolysis by hCES1c, ± S.D., Michaelis–Menten fit, conditions of Table 1) was 1530 ± 470 µM, the “Vmax (relative), ester hydrolysis by hCES1c” value (hCES1c [6]; ± S.D.) was 831 ± 140 AU/min/mg and the “Vmax (relative), ester hydrolysis by hCES1c” value (hCES1c [6]; ± S.D., listed as thebacon) was 831 AU/min/mg. For the same molecule, the “Relative amount of hydrolysis metabolite formed, pHLM” value [7] was “about 80%”, the “Relative amount of hydrolysis metabolite formed, pHLS9” value [8] was “about 80%” and the Km (hCES1b [9]) was 272 µM. For the same molecule, the Km (hCES1c [10]) was 264 µM and the Km (hCES2 [11]) was 166 µM.
